# Data as given in ChEMBL document CHEMBL1201862, “PubChem BioAssay data set” (2004).
#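 96-well plates; 48 h exposure; 5 concentrations. Endpoints by linear interpolation between flanking doses. Not reached: highest tested concentration assigned. GI50 = concentration required for 50% inhibition of growth.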 The source made the active and inactive calls. No stated cut-off is given here; in the data, active = GI50 up to about 1.1 µM and inactive = higher.
# Assays:
# Test in all cases: NCI anticancer screen, dose series, 48 h
# [1] = test system: 786-0
# [2] = test system: A498
# [3] = test system: A549
# [4] = test system: HCT-15
# [5] = test system: Hs-578T
# [6] = test system: K562
# [7] = test system: KM12
# [8] = test system: MCF7
# [9] = test system: MDA-MB-231
# [10] = test system: NCI/ADR-RES
# [11] = test system: OVCAR-8
# [12] = test system: RXF 393
# [13] = test system: SF-539
# [14] = test system: SNB-19
# [15] = test system: SNB-75
# [16] = test system: SR
# [17] = test system: SW-620
# [18] = test system: TK-10
# [19] = test system: HCT-116
Structure (SMILES),GI50 [1],GI50 [2],GI50 [3],GI50 [4],GI50 [5],GI50 [6],GI50 [7],GI50 [8],GI50 [9],GI50 [10],GI50 [11],GI50 [12],GI50 [13],GI50 [14],GI50 [15],GI50 [16],GI50 [17],GI50 [18],GI50 [19]
COC(=O)N1CC2(CO)C3CC=C(C(=O)Nc4ccccc4Br)C2C1C3Br (stereo not drawn),> 50 µM (inactive),> 50 µM (inactive),> 50 µM (inactive),> 50 µM,> 50 µM (inactive),> 50 µM (inactive),> 50 µM (inactive),> 50 µM (inactive),> 50 µM (inactive),> 50 µM (inactive),> 50 µM (inactive),> 50 µM (inactive),> 50 µM (inactive),> 50 µM (inactive),> 50 µM (inactive),> 50 µM (inactive),> 50 µM (inactive),> 50 µM (inactive),
COc1c(C(=O)c2ccc([N+](=O)[O-])cc2)cc(C(C)(C)C)cc1C(C)(C)C,40.9 µM (inactive),55.8 µM (inactive),31 µM (inactive),32 µM,,25.6 µM (inactive),16.9 µM (inactive),,,,52.7 µM (inactive),17.1 µM (inactive),64.4 µM (inactive),48.5 µM (inactive),74.5 µM (inactive),17.1 µM (inactive),48.6 µM (inactive),13.8 µM (inactive),18.8 µM (inactive)
C[C@H]1ON2CCC[C@@H]2[C@@H]1C(=O)N1C2CC3CCC2(CS1(=O)=O)C3(C)C (stereo partly drawn),> 100 µM (inactive),> 100 µM (inactive),> 100 µM (inactive),> 100 µM,> 100 µM (inactive),> 100 µM (inactive),> 100 µM (inactive),> 100 µM (inactive),> 100 µM (inactive),> 100 µM (inactive),> 100 µM (inactive),> 100 µM (inactive),> 100 µM (inactive),> 100 µM (inactive),> 100 µM (inactive),,> 100 µM (inactive),> 100 µM (inactive),> 100 µM (inactive)
N#Cc1ccccc1NC(=O)C(=O)C(C(=O)c1ccncc1)C1OC(=O)c2ccccc21 (stereo not drawn),> 100 µM (inactive),> 100 µM (inactive),> 100 µM (inactive),> 100 µM,,> 100 µM (inactive),> 100 µM (inactive),,,,> 100 µM (inactive),> 100 µM (inactive),> 100 µM (inactive),> 100 µM (inactive),> 100 µM (inactive),> 100 µM (inactive),> 100 µM (inactive),> 100 µM (inactive),> 100 µM (inactive)
c1ccc2c(c1)CCN2CCN1CCc2ccccc21,> 10 µM (inactive),,> 10 µM (inactive),> 10 µM,> 10 µM (inactive),> 10 µM (inactive),> 10 µM (inactive),> 10 µM (inactive),> 10 µM (inactive),> 10 µM (inactive),> 10 µM (inactive),> 10 µM (inactive),> 10 µM (inactive),> 10 µM (inactive),> 10 µM (inactive),> 10 µM (inactive),> 10 µM (inactive),> 10 µM (inactive),> 10 µM (inactive)
COc1cc(C2C(C(=O)Nc3ccccc3)=C(C)NC(C)=C2C(=O)Nc2ccccc2)ccc1O,37.8 µM (inactive),> 100 µM (inactive),40.6 µM (inactive),43.5 µM,,30.6 µM (inactive),31 µM (inactive),,,,30.1 µM (inactive),> 100 µM (inactive),21.6 µM (inactive),33.7 µM (inactive),13.6 µM (inactive),25.9 µM (inactive),37.9 µM (inactive),> 100 µM (inactive),34.5 µM (inactive)
COC1=CC(C2c3cc4c(cc3[C@@H](Nc3ccc(F)cc3)C3COC(=O)[C@H]23)OCO4)=CC(=O)C1=O (stereo partly drawn),3.29 µM (inactive),2.43 µM (inactive),1.36 µM (inactive),11.1 µM,,10.4 µM (inactive),13.3 µM (inactive),,,,10.1 µM (inactive),50.2 µM (inactive),4.37 µM (inactive),5.57 µM (inactive),6.81 µM (inactive),0.506 µM (active),12.7 µM (inactive),19.2 µM (inactive),9.89 µM (inactive)
O=C1CN(c2cccc(C(F)(F)F)c2)C(=O)CN1NCNN1CC(=O)N(c2cccc(C(F)(F)F)c2)CC1=O,> 100 µM (inactive),,> 100 µM (inactive),> 100 µM,> 100 µM (inactive),> 100 µM (inactive),36 µM (inactive),> 100 µM (inactive),> 100 µM (inactive),> 100 µM (inactive),> 100 µM (inactive),,> 100 µM (inactive),> 100 µM (inactive),> 100 µM (inactive),> 100 µM (inactive),> 100 µM (inactive),> 100 µM (inactive),> 100 µM (inactive)
O=C(O)c1ccc([I+]c2ccccc2)cc1,> 100 µM (inactive),> 100 µM (inactive),> 100 µM (inactive),> 100 µM,,> 100 µM (inactive),> 100 µM (inactive),,,,> 100 µM (inactive),> 100 µM (inactive),> 100 µM (inactive),> 100 µM (inactive),> 100 µM (inactive),> 100 µM (inactive),> 100 µM (inactive),> 100 µM (inactive),> 100 µM (inactive)
O=C1O/C(=C\c2ccc(O)cc2)C(c2ccc(O)c(Cl)c2)=C1Cl,50.2 µM (inactive),33.6 µM (inactive),40.1 µM (inactive),50 µM,> 100 µM (inactive),57.1 µM (inactive),34 µM (inactive),16.6 µM (inactive),77.4 µM (inactive),36.2 µM (inactive),49.5 µM (inactive),30.9 µM (inactive),91.8 µM (inactive),76.9 µM (inactive),70 µM (inactive),27.7 µM (inactive),41.7 µM (inactive),54.8 µM (inactive),
CC1(C)CSCC(C)(C)C(=N/N)/C1=N\N,> 100 µM (inactive),> 100 µM (inactive),> 100 µM (inactive),> 100 µM,,> 100 µM (inactive),> 100 µM (inactive),> 100 µM (inactive),,> 100 µM (inactive),> 100 µM (inactive),,> 100 µM (inactive),> 100 µM (inactive),> 100 µM (inactive),> 100 µM (inactive),> 100 µM (inactive),> 100 µM (inactive),> 100 µM (inactive)
NC(=O)CC(Nc1ncc2c(n1)-c1ccccc1OC2)C(=O)O (stereo not drawn),> 100 µM (inactive),,> 100 µM (inactive),85.7 µM,> 100 µM (inactive),> 100 µM (inactive),> 100 µM (inactive),77.6 µM (inactive),> 100 µM (inactive),> 100 µM (inactive),> 100 µM (inactive),> 100 µM (inactive),> 100 µM (inactive),> 100 µM (inactive),67.9 µM (inactive),> 100 µM (inactive),> 100 µM (inactive),> 100 µM (inactive),> 100 µM (inactive)
